According to US20120083522A1, “MODULATION OF INFLAMMATORY RESPONSES BY FACTOR XI” (Isis Pharmaceuitcals, inc., priority 2009, published 2012):
In the oligonucleotide strings, read from the 5' end, every base follows the letter of its sugar. An asterisk marks phosphorothioate; unmarked linkages are phosphodiester. Other units and linkages are bracketed, terminal groups are in braces. A string of capitals states the bases alone. e = 2'-O-(2-methoxyethyl) (MOE); [5mC] = 5-methylcytosine; d = 2'-deoxy (DNA)

Assays:
[1] = tested on: human Factor XI mRNA; assay: Dose-dependent antisense inhibition in HepG2 cells, lipofectin (Example 2); assay type: cell-based; details: approximately 16 hours
Method: Cells were plated at a density of 10,000 cells per well and transfected using lipofectin reagent with 9.375 nM, 18.75 nM, 37.5 nM, 75 nM, and 150 nM concentrations of antisense oligonucleotide, as specified in Table 3. After a treatment period of approximately 16 hours, RNA was isolated from the cells and Factor XI mRNA levels were measured by quantitative real-time PCR. Human Factor XI primer probe set RTS 2966 (forward sequence: […], incorporated herein as SEQ ID NO: 3; reverse sequence: […], incorporated herein as SEQ ID NO: 4; probe sequence: TTGTCTACTGAAGCACACCCAAACAGGGAX, wherein X is the fluorophore, incorporated herein as SEQ ID NO: 5) was used to measure mRNA levels. Factor XI mRNA levels were adjusted according to total RNA content, as measured by RIBOGREEN®. Results are presented as percent inhibition of Factor XI, relative to untreated control cells.

[2] = tested on: human Factor XI mRNA; assay: Dose-dependent inhibition in HepG2 cells, electroporation (Example 4); assay type: cell-based; details: 16 hours
Method in brief: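 HepG2 cells electroporated with 0.7, 2.2, 6.7 or 20 μM antisense gapmer and harvested after ~16 h. Factor XI mRNA quantified by qRT-PCR (primer probe set RTS 2966), normalised to total RNA (RIBOGREEN). Reported as percent inhibition versus untreated control cells.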

[3] = tested on: human Factor XI mRNA; assay: Dose-dependent inhibition in HepG2 cells, lipofectin (Example 4); assay type: cell-based; details: 16 hours
Method in brief: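 Read-out was percent inhibition of Factor XI mRNA relative to untreated controls, by qRT-PCR (RTS 2966) adjusted for RIBOGREEN-measured total RNA. Cells received antisense oligonucleotide at 9.375 to 75 nM (four levels) via lipofectin. Treatment lasted approximately 16 hours, with plating at 10,000 cells per well.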

[4] = tested on: human Factor XI mRNA; assay: Antisense inhibition in HepG2 cells by microwalk gapmers, 8,000 nM, electroporation (Example 14); assay type: cell-based; details: HepG2 cells, 8,000 nM
Method in brief: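 Percent reduction of Factor XI transcript, relative to untreated controls, by real-time PCR with RIBOGREEN normalisation. Readout taken about 24 h after electroporating HepG2 cells with 8,000 nM oligonucleotide. Gapmers are 5-10-5, 5-8-5 or 6-8-6 MOE wings, phosphorothioate backbone.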

[5] = tested on: human Factor XI mRNA; assay: Antisense inhibition in HepG2 cells by microwalk gapmers, 75 nM, lipofectin (Example 3); assay type: cell-based; details: HepG2 cells, 75 nM
Method in brief: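 HepG2 cells (10,000 per well) were transfected with 75 nM gapmer using lipofectin and treated for about 24 h. Factor XI mRNA was quantified by real-time PCR, normalized to RiboGreen total RNA and expressed as percent inhibition versus untreated controls.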

[6] = Tolerability in Sprague-Dawley rats: hematology assays (Example 23); assay type: in vivo; set-up: RBC / WBC / Neutrophil / Lymphocyte / Platelets: unit not given here; details: blood
[7] = Tolerability in CD1 mice: body and organ weight (Example 25); assay type: in vivo; details: 50 mg/kg s.c. twice per week for 6 weeks; for Kidney weight as percentage of body weight / Liver weight as percentage of body weight / Spleen weight as percentage of body weight: end of study

## 412203 (antisense eA*eA*eT*eG*eT*d[5mC]*dT*dT*dT*dG*dT*dT*dG*d[5mC]*dA*eA*eG*e[5mC]*eG*e[5mC]) [compound 412203]
[1]; 9.375 nM
  percent inhibition of Factor XI: 29%
[1]; 18.75 nM
  percent inhibition of Factor XI: 15%
[1]; 37.5 nM
  percent inhibition of Factor XI: 61%
[1]; 75 nM
  percent inhibition of Factor XI: 77%
[1]; 150 nM
  percent inhibition of Factor XI: 82%
[2]; 0.7 μM
  percent inhibition of Factor XI mRNA, relative to untreated control cells: 11%
[2]; 2.2 μM
  percent inhibition of Factor XI mRNA, relative to untreated control cells: 60%
[2]; 6.7 μM
  percent inhibition of Factor XI mRNA, relative to untreated control cells: 70%
[2]; 20 μM
  percent inhibition of Factor XI mRNA, relative to untreated control cells: 91%
[3]; 9.375 nM
  percent inhibition of Factor XI mRNA, relative to untreated control cells: 33%
[3]; 18.75 nM
  percent inhibition of Factor XI mRNA, relative to untreated control cells: 40%
[3]; 37.5 nM
  percent inhibition of Factor XI mRNA, relative to untreated control cells: 62%
[3]; 75 nM
  percent inhibition of Factor XI mRNA, relative to untreated control cells: 74%

## 412206 (antisense e[5mC]*e[5mC]*eG*eT*eG*d[5mC]*dA*dT*d[5mC]*dT*dT*dT*d[5mC]*dT*dT*eG*eG*e[5mC]*eA*eT) [compound 412206]
[4]
  Percent inhibition of human Factor XI mRNA levels: 91%
[1]; 9.375 nM
  percent inhibition of Factor XI: 28%
[1]; 18.75 nM
  percent inhibition of Factor XI: 44%
[1]; 37.5 nM
  percent inhibition of Factor XI: 68%
[1]; 75 nM
  percent inhibition of Factor XI: 80%
[1]; 150 nM
  percent inhibition of Factor XI: 89%
[2]; 0.7 μM
  percent inhibition of Factor XI mRNA, relative to untreated control cells: 22%
[2]; 2.2 μM
  percent inhibition of Factor XI mRNA, relative to untreated control cells: 39%
[2]; 6.7 μM
  percent inhibition of Factor XI mRNA, relative to untreated control cells: 81%
[2]; 20 μM
  percent inhibition of Factor XI mRNA, relative to untreated control cells: 94%
[5]; oligonucleotides targeted to nucleobases 738 to 762 of SEQ ID NO: 1
  % inhibition of human Factor XI mRNA levels: 93%
[3]; 9.375 nM
  percent inhibition of Factor XI mRNA, relative to untreated control cells: 24%
[3]; 18.75 nM
  percent inhibition of Factor XI mRNA, relative to untreated control cells: 47%
[3]; 37.5 nM
  percent inhibition of Factor XI mRNA, relative to untreated control cells: 69%
[3]; 75 nM
  percent inhibition of Factor XI mRNA, relative to untreated control cells: 86%

## 412212 (antisense e[5mC]*e[5mC]*eG*eG*eG*dA*dT*dG*dA*dT*dG*dA*dG*dT*dG*e[5mC]*eA*eG*eA*eT) [compound 412212]
[1]; 9.375 nM
  percent inhibition of Factor XI: 28%
[1]; 18.75 nM
  percent inhibition of Factor XI: 45%
[1]; 37.5 nM
  percent inhibition of Factor XI: 59%
[1]; 75 nM
  percent inhibition of Factor XI: 73%
[1]; 150 nM
  percent inhibition of Factor XI: 88%
[5]; oligonucleotides targeted to nucleobases 1018 to 1042 of SEQ ID NO: 1
  % inhibition of human Factor XI mRNA levels: 89%

## 413467 (antisense eG*eG*eT*e[5mC]*e[5mC]*dA*d[5mC]*dA*dT*dA*dA*dA*dT*dG*dT*e[5mC]*eT*eT*eT*eG) [compound 413467]
[1]; 9.375 nM
  percent inhibition of Factor XI: 2%
[1]; 18.75 nM
  percent inhibition of Factor XI: 35%
[1]; 37.5 nM
  percent inhibition of Factor XI: 49%
[1]; 75 nM
  percent inhibition of Factor XI: 61%
[1]; 150 nM
  percent inhibition of Factor XI: 47%
[2]; 0.7 μM
  percent inhibition of Factor XI mRNA, relative to untreated control cells: 5%
[2]; 2.2 μM
  percent inhibition of Factor XI mRNA, relative to untreated control cells: 31%
[2]; 6.7 μM
  percent inhibition of Factor XI mRNA, relative to untreated control cells: 65%
[2]; 20 μM
  percent inhibition of Factor XI mRNA, relative to untreated control cells: 89%
[3]; 9.375 nM
  percent inhibition of Factor XI mRNA, relative to untreated control cells: 35%
[3]; 18.75 nM
  percent inhibition of Factor XI mRNA, relative to untreated control cells: 51%
[3]; 37.5 nM
  percent inhibition of Factor XI mRNA, relative to untreated control cells: 62%
[3]; 75 nM
  percent inhibition of Factor XI mRNA, relative to untreated control cells: 69%

## 413476 (antisense eT*eT*eG*eA*eG*dA*dT*dT*d[5mC]*dT*dT*dT*dG*dG*dG*e[5mC]*e[5mC]*eA*eT*eT) [compound 413476]
[1]; 9.375 nM
  percent inhibition of Factor XI: 26%
[1]; 18.75 nM
  percent inhibition of Factor XI: 44%
[1]; 37.5 nM
  percent inhibition of Factor XI: 64%
[1]; 75 nM
  percent inhibition of Factor XI: 73%
[1]; 150 nM
  percent inhibition of Factor XI: 82%
[2]; 0.7 μM
  percent inhibition of Factor XI mRNA, relative to untreated control cells: 40%
[2]; 2.2 μM
  percent inhibition of Factor XI mRNA, relative to untreated control cells: 69%
[2]; 6.7 μM
  percent inhibition of Factor XI mRNA, relative to untreated control cells: 88%
[2]; 20 μM
  percent inhibition of Factor XI mRNA, relative to untreated control cells: 93%
[5]; oligonucleotides targeted to nucleobases 1062 to 1091 of SEQ ID NO: 1
  % inhibition of human Factor XI mRNA levels: 93%
[3]; 9.375 nM
  percent inhibition of Factor XI mRNA, relative to untreated control cells: 24%
[3]; 18.75 nM
  percent inhibition of Factor XI mRNA, relative to untreated control cells: 58%
[3]; 37.5 nM
  percent inhibition of Factor XI mRNA, relative to untreated control cells: 62%
[3]; 75 nM
  percent inhibition of Factor XI mRNA, relative to untreated control cells: 77%

## ISIS 416848: gapmer of Table 8 (antisense e[5mC]*eA*e[5mC]*eA*eG*dT*dT*dT*d[5mC]*dT*dG*dG*d[5mC]*dA*dG*eG*e[5mC]*e[5mC]*eT*e[5mC])
[6]
  RBC: 6.0
  WBC: 17

## ISIS 416851: gapmer of Table 8 (antisense eG*eT*eG*e[5mC]*eA*d[5mC]*dA*dG*dT*dT*dT*d[5mC]*dT*dG*dG*e[5mC]*eA*eG*eG*e[5mC])
[6]
  RBC: 7.4
  WBC: 11

## ISIS 416852: gapmer of Table 8 (antisense eT*eG*eG*eT*eG*d[5mC]*dA*d[5mC]*dA*dG*dT*dT*dT*d[5mC]*dT*eG*eG*e[5mC]*eA*eG)
[6]
  RBC: 7.2
  WBC: 13

## ISIS 416859: gapmer of Table 8 (antisense eG*eA*e[5mC]*eG*eG*d[5mC]*dA*dT*dT*dG*dG*dT*dG*d[5mC]*dA*e[5mC]*eA*eG*eT*eT)
[6]
  RBC: 7.8
  WBC: 16

## ISIS 416860: gapmer of Table 8 (antisense e[5mC]*eG*eG*eA*e[5mC]*dG*dG*d[5mC]*dA*dT*dT*dG*dG*dT*dG*e[5mC]*eA*e[5mC]*eA*eG)
[6]
  RBC: 7.8
  WBC: 17

## ISIS 416861: gapmer of Table 8 (antisense eG*e[5mC]*eG*eG*eA*d[5mC]*dG*dG*d[5mC]*dA*dT*dT*dG*dG*dT*eG*e[5mC]*eA*e[5mC]*eA)
[6]
  RBC: 7.7
  WBC: 15

## ISIS 416863: gapmer of Table 8 (antisense e[5mC]*eA*eG*e[5mC]*eG*dG*dA*d[5mC]*dG*dG*d[5mC]*dA*dT*dT*dG*eG*eT*eG*e[5mC]*eA)
[6]
  RBC: 7.6
  WBC: 17

## ISIS 416866: gapmer of Table 8 (antisense e[5mC]*eT*eG*eG*e[5mC]*dA*dG*d[5mC]*dG*dG*dA*d[5mC]*dG*dG*d[5mC]*eA*eT*eT*eG*eG)
[6]
  RBC: 7.8
  WBC: 20

## ISIS 416867: gapmer of Table 8 (antisense eA*e[5mC]*eT*eG*eG*d[5mC]*dA*dG*d[5mC]*dG*dG*dA*d[5mC]*dG*dG*e[5mC]*eA*eT*eT*eG)
[6]
  RBC: 7.8
  WBC: 14

## ISIS 445498: microwalk gapmer of Table 51 (antisense eG*eG*eT*eG*e[5mC]*eA*d[5mC]*dA*dG*dT*dT*dT*d[5mC]*dT*eG*eG*e[5mC]*eA*eG*eG)
[7]
  Body weight (increase over PBS control weight before start of treatment): 10 g
  Kidney weight as percentage of body weight: 1.6%
  Liver weight as percentage of body weight: 6%
  Spleen weight as percentage of body weight: 0.5%

## ISIS 445504: microwalk gapmer of Table 51 (antisense eG*eG*e[5mC]*eA*eT*eT*dG*dG*dT*dG*d[5mC]*dA*d[5mC]*dA*eG*eT*eT*eT*e[5mC]*eT)
[7]
  Body weight (increase over PBS control weight before start of treatment): 11 g
  Kidney weight as percentage of body weight: 1.6%
  Liver weight as percentage of body weight: 6%
  Spleen weight as percentage of body weight: 0.4%

## ISIS 445505: microwalk gapmer of Table 51 (antisense e[5mC]*eG*eG*e[5mC]*eA*eT*dT*dG*dG*dT*dG*d[5mC]*dA*d[5mC]*eA*eG*eT*eT*eT*e[5mC])
[7]
  Body weight (increase over PBS control weight before start of treatment): 12 g
  Kidney weight as percentage of body weight: 1.5%
  Liver weight as percentage of body weight: 6%
  Spleen weight as percentage of body weight: 0.5%

## ISIS 445509: microwalk gapmer of Table 51 (antisense e[5mC]*eG*eG*eA*e[5mC]*eG*dG*d[5mC]*dA*dT*dT*dG*dG*dT*eG*e[5mC]*eA*e[5mC]*eA*eG)
[7]
  Body weight (increase over PBS control weight before start of treatment): 10 g
  Kidney weight as percentage of body weight: 1.6%
  Liver weight as percentage of body weight: 6%
  Spleen weight as percentage of body weight: 0.5%

## ISIS 445513: microwalk gapmer of Table 51 (antisense eG*e[5mC]*eA*eG*e[5mC]*eG*dG*dA*d[5mC]*dG*dG*d[5mC]*dA*dT*eT*eG*eG*eT*eG*e[5mC])
[7]
  Body weight (increase over PBS control weight before start of treatment): 9 g
  Kidney weight as percentage of body weight: 1.6%
  Liver weight as percentage of body weight: 5%
  Spleen weight as percentage of body weight: 0.4%
